Source: US20100267561A1, “HERBICIDAL PYRIDAZINONE DERIVATIVES” (priority 2007, published 2010)
Where two headings read alike, the source gives them in different places.

Columns and labels:
Experiment in all cases: Test B pre-/postemergence plant response
Assay type in all cases: in vivo
[1] = tested on: Italian ryegrass (Lolium multiflorum); conditions: Lolium multiflorum, read-out: Plant response rating, Ryegrass, Italian; for pest or weed control at 31 g/ha: 31 g ai/ha, 100 complete control; for pest or weed control at 62 g/ha: 62 g ai/ha; for pest or weed control at 62 g/ha / pest or weed control at 125 g/ha / pest or weed control at 250 g/ha: scale 0 to 100; for pest or weed control at 125 g/ha: 125 g ai/ha; for pest or weed control at 250 g/ha: 250 g ai/ha
Procedure, shortened: (§1)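 Preemergence and postemergence (plants 2-18 cm, 1- to 4-leaf stage) applications used test chemicals in a non-phytotoxic solvent with surfactant. Plants were held in a greenhouse 13 to 15 days, then rated visually against controls on a 0-100 scale (0 no effect, 100 complete control).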

[2] = tested on: pigweed (Amaranthus retroflexus); conditions: Amaranthus retroflexus, read-out: Plant response rating, Pigweed; for pest or weed control at 62 g/ha: 62 g ai/ha; for pest or weed control at 62 g/ha / pest or weed control at 125 g/ha / pest or weed control at 250 g/ha: scale 0 to 100; for pest or weed control at 125 g/ha: 125 g ai/ha; for pest or weed control at 250 g/ha: 250 g ai/ha
Procedure, shortened: as §1

[3] = tested on: common (oilseed) sunflower (Helianthus annuus); conditions: Helianthus annuus, pre-emergence, Preemergence, read-out: Plant response rating, Sunflower
Procedure, shortened: as §1

[4] = tested on: goosegrass (Eleusine indica); conditions: Eleusine indica, read-out: Plant response rating, Goosegrass; for pest or weed control at 31 g/ha: 31 g ai/ha, 100 complete control; for pest or weed control at 62 g/ha: 62 g ai/ha; for pest or weed control at 62 g/ha / pest or weed control at 125 g/ha / pest or weed control at 250 g/ha: scale 0 to 100; for pest or weed control at 125 g/ha: 125 g ai/ha; for pest or weed control at 250 g/ha: 250 g ai/ha
Procedure, shortened: as §1

[5] = tested on: common ragweed (Ambrosia elation); conditions: Ambrosia, read-out: Plant response rating, Ragweed; for pest or weed control at 31 g/ha: 31 g ai/ha, 100 complete control; for pest or weed control at 62 g/ha: 62 g ai/ha; for pest or weed control at 62 g/ha / pest or weed control at 125 g/ha / pest or weed control at 250 g/ha: scale 0 to 100; for pest or weed control at 125 g/ha: 125 g ai/ha; for pest or weed control at 250 g/ha: 250 g ai/ha
Procedure, shortened: as §1

[6] = tested on: large crabgrass (Digitaria sanguinalis); conditions: Digitaria sanguinalis, read-out: Plant response rating, Crabgrass, Large; for pest or weed control at 31 g/ha: 31 g ai/ha, 100 complete control; for pest or weed control at 62 g/ha: 62 g ai/ha; for pest or weed control at 62 g/ha / pest or weed control at 125 g/ha / pest or weed control at 250 g/ha: scale 0 to 100; for pest or weed control at 125 g/ha: 125 g ai/ha; for pest or weed control at 250 g/ha: 250 g ai/ha
Procedure, shortened: as §1

[7] = tested on: catchweed bedstraw (Galium aparine); conditions: Galium aparine, pre-emergence, Preemergence, read-out: Plant response rating, Galium
Procedure, shortened: as §1

[8] = tested on: surinam grass (Brachiaria decumbens); conditions: Urochloa decumbens, read-out: Plant response rating, Surinam Grass; for pest or weed control at 31 g/ha: 31 g ai/ha, 100 complete control; for pest or weed control at 62 g/ha: 62 g ai/ha; for pest or weed control at 62 g/ha / pest or weed control at 125 g/ha / pest or weed control at 250 g/ha: scale 0 to 100; for pest or weed control at 125 g/ha: 125 g ai/ha; for pest or weed control at 250 g/ha: 250 g ai/ha
Procedure, shortened: as §1

[9] = tested on: kochia (Kochia scoparia)
Procedure, shortened: as §1

[10] = tested on: soybean (Glycine max); conditions: Glycine max, read-out: Plant response rating, Soybean; for plant injury at 31 g/ha: 31 g ai/ha, 100 complete control; for plant injury at 250 g/ha: 250 g ai/ha
Procedure, shortened: as §1

[11] = tested on: downy bromegrass (Bromus tectorum); conditions: Bromus tectorum, read-out: Plant response rating, Bromegrass, Downy; for pest or weed control at 31 g/ha: 31 g ai/ha, 100 complete control; for pest or weed control at 62 g/ha: 62 g ai/ha; for pest or weed control at 125 g/ha: 125 g ai/ha; for pest or weed control at 250 g/ha: 250 g ai/ha
Procedure, shortened: as §1

[12] = tested on: woolly cupgrass (Eriochloa villosa); conditions: Eriochloa villosa, read-out: Plant response rating, Cupgrass, Woolly; for pest or weed control at 31 g/ha: 31 g ai/ha, 100 complete control; for pest or weed control at 62 g/ha: 62 g ai/ha; for pest or weed control at 62 g/ha / pest or weed control at 125 g/ha / pest or weed control at 250 g/ha: scale 0 to 100; for pest or weed control at 125 g/ha: 125 g ai/ha; for pest or weed control at 250 g/ha: 250 g ai/ha
Procedure, shortened: as §1

[13] = tested on: cocklebur (Xanthium strumarium); conditions: Xanthium strumarium, read-out: Plant response rating, Cocklebur; for pest or weed control at 31 g/ha: 31 g ai/ha, 100 complete control; for pest or weed control at 62 g/ha: 62 g ai/ha; for pest or weed control at 62 g/ha / pest or weed control at 125 g/ha / pest or weed control at 250 g/ha: scale 0 to 100; for pest or weed control at 125 g/ha: 125 g ai/ha; for pest or weed control at 250 g/ha: 250 g ai/ha
Procedure, shortened: as §1

[14] = post-emergence, Postemergence, scale 0 to 100, 0 no effect
[15] = pre-emergence, Preemergence, 0 to 100 scale, 0 no effect
[16] = 31 g ai/ha, 0 to 100 scale, 0 no effect, 100 complete control
[17] = post-emergence, Postemergence, scale 0 to 100
[18] = pre-emergence, Preemergence, scale 0 to 100

Cc1cc(-c2ccc(C(F)(F)F)cc2)nn1-c1c(O)cnn(C)c1=O [Compound 1, 5-hydroxy-2-methyl-4-[5-methyl-3-[4-(trifluoromethyl)phenyl]-1H-pyrazol-1-yl]-3(2H)-pyridazinone]
pest or weed control at 31 g/ha [1, 14]: 95%
pest or weed control at 62 g/ha ([1]; post-emergence, Postemergence): 100%
pest or weed control at 125 g/ha ([1]; post-emergence, Postemergence): 100%
pest or weed control at 250 g/ha ([1]; post-emergence, Postemergence): 100%
pest or weed control at 31 g/ha [1, 15]: 80%
pest or weed control at 62 g/ha ([1]; pre-emergence, Preemergence): 100%
pest or weed control at 125 g/ha ([1]; pre-emergence, Preemergence): 100%
pest or weed control at 250 g/ha ([1]; pre-emergence, Preemergence): 100%
pest or weed control at 31 g/ha ([2]; post-emergence, Postemergence, 31 g ai/ha, scale 0 to 100, 0 no effect, 100 complete control): 0%
pest or weed control at 62 g/ha ([2]; post-emergence, Postemergence): 0%
pest or weed control at 125 g/ha ([2]; post-emergence, Postemergence): 0%
pest or weed control at 250 g/ha ([2]; post-emergence, Postemergence): 40%
pest or weed control at 62 g/ha ([2]; pre-emergence, Preemergence): 0%
pest or weed control at 125 g/ha ([2]; pre-emergence, Preemergence): 0%
pest or weed control at 250 g/ha ([2]; pre-emergence, Preemergence): 0%
pest or weed control at 31 g/ha [3, 16]: 0%
pest or weed control at 62 g/ha ([3]; 62 g ai/ha, scale 0 to 100): 0%
pest or weed control at 125 g/ha ([3]; 125 g ai/ha, scale 0 to 100): 0%
pest or weed control at 250 g/ha ([3]; 250 g ai/ha, scale 0 to 100): 60%
pest or weed control at 31 g/ha [4, 14]: 30%
pest or weed control at 62 g/ha ([4]; post-emergence, Postemergence): 30%
pest or weed control at 125 g/ha ([4]; post-emergence, Postemergence): 50%
pest or weed control at 250 g/ha ([4]; post-emergence, Postemergence): 85%
pest or weed control at 31 g/ha [4, 15]: 50%
pest or weed control at 62 g/ha ([4]; pre-emergence, Preemergence): 50%
pest or weed control at 125 g/ha ([4]; pre-emergence, Preemergence): 100%
pest or weed control at 250 g/ha ([4]; pre-emergence, Preemergence): 100%
pest or weed control at 31 g/ha [5, 14]: 0%
pest or weed control at 62 g/ha ([5]; post-emergence, Postemergence): 0%
pest or weed control at 125 g/ha ([5]; post-emergence, Postemergence): 50%
pest or weed control at 250 g/ha ([5]; post-emergence, Postemergence): 55%
pest or weed control at 31 g/ha [5, 15]: 0%
pest or weed control at 62 g/ha ([5]; pre-emergence, Preemergence): 0%
pest or weed control at 125 g/ha ([5]; pre-emergence, Preemergence): 0%
pest or weed control at 250 g/ha ([5]; pre-emergence, Preemergence): 0%
pest or weed control at 31 g/ha [6, 14]: 80%
pest or weed control at 62 g/ha ([6]; post-emergence, Postemergence): 90%
pest or weed control at 125 g/ha ([6]; post-emergence, Postemergence): 100%
pest or weed control at 250 g/ha ([6]; post-emergence, Postemergence): 100%
pest or weed control at 31 g/ha [6, 15]: 98%
pest or weed control at 62 g/ha ([6]; pre-emergence, Preemergence): 100%
pest or weed control at 125 g/ha ([6]; pre-emergence, Preemergence): 100%
pest or weed control at 250 g/ha ([6]; pre-emergence, Preemergence): 100%
pest or weed control at 31 g/ha [7, 16]: 0%
pest or weed control at 62 g/ha ([7]; 62 g ai/ha, scale 0 to 100): 0%
pest or weed control at 125 g/ha ([7]; 125 g ai/ha, scale 0 to 100): 0%
pest or weed control at 250 g/ha ([7]; 250 g ai/ha, scale 0 to 100): 0%
pest or weed control at 31 g/ha [8, 14]: 100%
pest or weed control at 62 g/ha ([8]; post-emergence, Postemergence): 100%
pest or weed control at 125 g/ha ([8]; post-emergence, Postemergence): 100%
pest or weed control at 250 g/ha ([8]; post-emergence, Postemergence): 100%
pest or weed control at 31 g/ha [8, 15]: 100%
pest or weed control at 62 g/ha ([8]; pre-emergence, Preemergence): 100%
pest or weed control at 125 g/ha ([8]; pre-emergence, Preemergence): 100%
pest or weed control at 250 g/ha ([8]; pre-emergence, Preemergence): 100%
Plant response rating, Kochia ([9]; Postemergence, 31 g ai/ha, scale 0 to 100, 0 no effect, 100 complete control): 0
Plant response rating, Kochia ([9]; Postemergence, 62 g ai/ha, scale 0 to 100): 0
Plant response rating, Kochia ([9]; Postemergence, 125 g ai/ha, scale 0 to 100): 0
Plant response rating, Kochia ([9]; Postemergence, 250 g ai/ha, scale 0 to 100): 20
Plant response rating, Kochia ([9]; Preemergence, 62 g ai/ha, scale 0 to 100): 0
Plant response rating, Kochia ([9]; Preemergence, 125 g ai/ha, scale 0 to 100): 20
plant injury at 31 g/ha [10, 14]: 0%
plant injury at 62 g/ha ([10]; post-emergence, Postemergence, 62 g ai/ha, scale 0 to 100): 25%
plant injury at 125 g/ha ([10]; post-emergence, Postemergence, 125 g ai/ha, scale 0 to 100): 50%
plant injury at 250 g/ha [10, 17]: 60%
plant injury at 31 g/ha [10, 15]: 0%
plant injury at 250 g/ha [10, 18]: 0%
pest or weed control at 31 g/ha [11, 14]: 30%
pest or weed control at 62 g/ha [11, 17]: 60%
pest or weed control at 125 g/ha [11, 17]: 95%
pest or weed control at 250 g/ha [11, 17]: 100%
pest or weed control at 31 g/ha [11, 15]: 40%
pest or weed control at 62 g/ha [11, 18]: 80%
pest or weed control at 125 g/ha [11, 18]: 80%
pest or weed control at 250 g/ha ([11]; pre-emergence, Preemergence, scale 0 to 100 (0 no effect, 100 complete control)): 95%
pest or weed control at 31 g/ha [12, 14]: 95%
pest or weed control at 62 g/ha ([12]; post-emergence, Postemergence): 100%
pest or weed control at 125 g/ha ([12]; post-emergence, Postemergence): 100%
pest or weed control at 250 g/ha ([12]; post-emergence, Postemergence): 100%
pest or weed control at 31 g/ha [12, 15]: 85%
pest or weed control at 62 g/ha ([12]; pre-emergence, Preemergence): 100%
pest or weed control at 125 g/ha ([12]; pre-emergence, Preemergence): 100%
pest or weed control at 250 g/ha ([12]; pre-emergence, Preemergence): 100%
pest or weed control at 31 g/ha [13, 14]: 0%
pest or weed control at 62 g/ha ([13]; post-emergence, Postemergence): 0%
pest or weed control at 125 g/ha ([13]; post-emergence, Postemergence): 0%
pest or weed control at 250 g/ha ([13]; post-emergence, Postemergence): 0%
pest or weed control at 31 g/ha [13, 15]: 0%
pest or weed control at 62 g/ha ([13]; pre-emergence, Preemergence): 0%
pest or weed control at 125 g/ha ([13]; pre-emergence, Preemergence): 0%
pest or weed control at 250 g/ha ([13]; pre-emergence, Preemergence): 0%
